Data taken from US11286268B1, “EIF4E-inhibiting compounds and methods” (EFFECTOR THERAPEUTICS, INC., priority 2019, dated 2022).
Read-outs that look alike come from different tables or passages of the source.

Biological target: recombinant eIF4E (Homo sapiens (Human), UniProt P06730)
Assay: Fluorescence polarization competition assay for eIF4E binding potency
How it was run: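 Competition of test compound against 20 nM EDA-m^7GDP-ATTO-550 for 75 nM recombinant eIF4E, pre-incubated 5 min, in 20 mM Tris pH 7.5, 100 mM NaCl, 1 mM DTT, 0.02% Tween-20, 1% DMSO. Equilibrated 30 min at room temperature, dark; fluorescence polarization read. IC50 from 8-point, 3-fold dilution series.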

[1] = fluorescence polarization competition, 75 nM recombinant eIF4E, 20 nM EDA-m7GDP-ATTO-550, IC50 class, read-out: elF4E FP
[2] = inhibition of eIF4E/EDA-m7GDP-ATTO-550 binding, calculated IC50 values, Table 4B, read-out: IC50

recombinant eIF4E, sequence (P06730 whole entry): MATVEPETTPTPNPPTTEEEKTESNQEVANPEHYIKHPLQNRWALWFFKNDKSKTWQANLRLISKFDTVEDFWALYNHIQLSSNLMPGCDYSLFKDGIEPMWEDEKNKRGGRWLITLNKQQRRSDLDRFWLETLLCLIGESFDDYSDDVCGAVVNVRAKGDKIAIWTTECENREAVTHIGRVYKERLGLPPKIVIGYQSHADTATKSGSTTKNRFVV

| Structure (SMILES) | IC50 [1] [nM] | IC50 (inhibition of eIF4E/EDA-m7GDP-ATTO-550 binding by 50%, Table 4B calculated values, read-out: IC50) [nM] | IC50 [2] [nM] |
| --- | --- | --- | --- |
| CCN(c1ncc2nc(C)n(CC#Cc3ccc(Cl)cc3-c3ccnc4c(C(=O)O)csc34)c(=O)c2c1C#N)C1CCN(C2COC2)CC1 [compound 1186] | < 50 | 20.1 | – |
| Cc1nc2cnc(N3CCC(N4CC(OC(F)F)C4)CC3)c(C#N)c2c(=O)n1CC#Cc1ccc(Cl)cc1-c1ccnc2c(C(=O)O)csc12 [compound 1187] | < 50 | – | – |
| Cc1nc2cnc(N(C)C3CCN(CC4CC(OC(F)F)C4)CC3)c(C#N)c2c(=O)n1CC#Cc1ccc(Cl)cc1-c1ccnc2c(C(=O)O)csc12 (stereo not drawn) [compound 1189] | < 50 | – | 13.4 |
| Cc1nc2cnc(N(C)C3CCN(CCC(C)(F)F)CC3)c(C#N)c2c(=O)n1CC#Cc1ccc(Cl)cc1-c1ccnc2c(C(=O)O)csc12 [compound 1190] | < 50 | – | 7.3 |
| CCN(c1ncc2nc(C)n(CC#Cc3ccc(Cl)cc3-c3ccnc4c(C(=O)O)csc34)c(=O)c2c1C#N)C1CCN(CC(F)(F)C(F)F)CC1 [compound 1191] | < 50 | – | 12.8 |
| COC(=O)c1csc2c(-c3cc(Cl)ccc3C#CCn3c(C)nc4cnc(N(C)C5CCN(CC(F)(F)F)CC5)c(C#N)c4c3=O)ccnc12 [compound 1195] | < 50 | – | 13.1 |
| Cc1cc(-c2cc(Cl)ccc2OCCn2c(C)nc3cc(C(F)(F)F)c(CCN(C)C)c(C#N)c3c2=O)c2sc(C)c(C(=O)O)c2n1 [compound 1200] | < 50 | – | 14.8 |
| Cc1cc(-c2cc(Cl)ccc2OCCn2c(C)nc3cc(Cl)c(N4CCN(C(C)(C)C)CC4)c(C#N)c3c2=O)c2sc(C)c(C(=O)O)c2n1 [compound 1201] | < 50 | – | 22.8 |
| Cc1cc(-c2cc(Cl)ccc2OCCn2c(C)nc3cnc(N4C[C@H]5C[C@@H](C4)N5C)c(C#N)c3c2=O)c2sc(C)c(C(=O)O)c2n1 [compound 1202] | < 50 | – | 19.7 |
| Cc1cc(-c2cc(Cl)ccc2OCCn2c(C)nc3cc(C(F)(F)F)c(N4CCN(C)C(C(F)(F)F)C4)c(C#N)c3c2=O)c2sc(C)c(C(=O)O)c2n1 (stereo not drawn) [compound 1207] | 50 to 1000 | – | 121 |
| COc1cc2nc(C)n(CCOc3ccc(Cl)cc3-c3cc(C)nc4c(C(=O)O)c(C)sc34)c(=O)c2c(C#N)c1N1CCN(C)CC1 [compound 1208] | < 50 | – | 48.9 |
| Cc1cc(-c2cc(Cl)ccc2OCCn2c(C)nc3cc(S(C)(=O)=O)c(N4CCN(C)CC4)cc3c2=O)c2scc(C(=O)O)c2n1 [compound 1209] | 50 to 1000 | – | 98 |
| Cc1sc2c(-c3cc(Cl)ccc3OCCn3c(C)nc4cc(C(F)(F)F)c(N5CCN(C)CC5)cc4c3=O)ccnc2c1C(=O)O [compound 1210] | < 50 | – | 48.3 |
| Cc1cc(-c2cc(Cl)ccc2OCCc2nc3cc(N4CCN(C)CC4)c(C(F)(F)F)cc3nc2C)c2scc(C(=O)O)c2n1 [compound 1211] | 50 to 1000 | – | > 1000 |
| Cc1nc2cc(C(F)(F)F)c(N3CCN(C)CC3)c(C#N)c2c(=O)n1CC#Cc1ccc(Cl)cc1-c1ccnc2c(C(=O)O)csc12 [compound 1212] | < 50 | – | 44.2 |
| Cc1cc(-c2cc(Cl)ccc2C#CCn2c(C)nc3cc(C(F)(F)F)c(N4CCN(C)CC4)c(C#N)c3c2=O)c2scc(C(=O)O)c2n1 [compound 1213] | < 50 | – | 42.7 |
| Cc1nc2cc(C(F)(F)F)c(N3CCN(C)CC3)c(C#N)c2c(=O)n1CCOc1ccc(Cl)cc1-c1ccc(F)c2c(C(=O)O)csc12 [compound 1214] | < 50 | – | 5.08 |
| Cc1ccc(-c2cc(Cl)ccc2OCCn2c(C)nc3cc(C(F)(F)F)c(N4CCN(C)CC4)c(C#N)c3c2=O)c2scc(C(=O)O)c12 [compound 1218] | < 50 | – | 13.1 |
| Cc1nc2cc(C(F)(F)F)c(N3CCN(C)CC3)c(C#N)c2c(=O)n1CCOc1ccc(Cl)cc1-c1ccnc(C(=O)O)c1 [compound 1221] | < 50 | – | 30 |
| Cc1cc(-c2cc(Cl)ccc2OCCn2c(C)nc3cc(C(F)(F)F)c(N4CCN(C)CC4)c(C#N)c3c2=O)cc(C(=O)O)n1 [compound 1222] | < 50 | – | 3.02 |
| CCc1cc(-c2cc(Cl)ccc2OCCn2c(C)nc3cc(C(F)(F)F)c(N4CCN(C)CC4)c(C#N)c3c2=O)cc(C(=O)O)n1 [compound 1223] | < 50 | – | 2.79 |
| COc1cc(-c2cc(Cl)ccc2OCCn2c(C)nc3cc(C(F)(F)F)c(N4CCN(C)CC4)c(C#N)c3c2=O)cc(C(=O)O)n1 [compound 1224] | 50 to 1000 | – | – |
| Cc1nc2cc(C(F)(F)F)c(N3CCN(C)CC3)c(C#N)c2c(=O)n1CCOc1ccc(Cl)cc1-c1cc(C(=O)O)nc(N(C)C)c1 [compound 1225] | < 50 | – | 3.12 |
| Cc1cc(-c2cc(Cl)ccc2OCCn2c(C)nc3cc(C(F)(F)F)c(N4CCN(C)CC4)c(C#N)c3c2=O)c(C)c(C(=O)O)n1 [compound 1226] | < 50 | – | 6.63 |
| Cc1nc2cc(C(F)(F)F)c(N3CCN(C)CC3)c(C#N)c2c(=O)n1CCOc1ccc(Cl)cc1-c1ccnc2c(-c3nn[nH]n3)csc12 [compound 1228] | < 50 | – | 1.11 |
| Cc1nc2cnc(N(C)[C@H]3CC[C@H](N(C)CCF)CC3)c(C#N)c2c(=O)n1CC#Cc1ccc(Cl)cc1-c1ccnc2c(C(=O)O)csc12 [compound 1229] | < 50 | – | 10.7 |
| Cc1nc2cc(C(F)(F)F)c(N3CCN(C)CC3)cc2c(=O)n1CCOc1ccc(Cl)cc1-c1ccnc2c(C(=O)O)csc12 [compound 1230] | < 50 | – | 10.3 |
| Cc1cc2cc(C(F)(F)F)c(N3CCN(C)CC3)c(C#N)c2c(=O)n1CCOc1ccc(Cl)cc1-c1ccnc2c(C(=O)O)csc12 [compound 1240] | < 50 | – | 15.5 |

Next, values leading:

| IC50 [1] [nM] | IC50 (inhibition of eIF4E/EDA-m7GDP-ATTO-550 binding by 50%, Table 4B calculated values, read-out: IC50) [nM] | IC50 [2] [nM] | Structure (SMILES) |
| --- | --- | --- | --- |
| < 50 | – | 48.8 | Cc1cc(-c2cc(Cl)ccc2OCCn2c(C)nc3cc(C(F)(F)F)c(-c4ccnc5c4CCN5)c(C#N)c3c2=O)c2scc(C(=O)O)c2n1 [compound 1192] |
| < 50 | – | – | Cc1cc(-c2cc(Cl)ccc2OCCn2c(C)nc3c(=O)n(C)c(-c4ccccc4)c(C#N)c3c2=O)c2scc(C(=O)O)c2n1 [compound 1193] |
| < 50 | – | 15.3 | Cc1cc(-c2cc(Cl)ccc2OCCn2c(C)nc3cnc([C@H]4C[C@@H](O)C4)c(C#N)c3c2=O)c2scc(C(=O)O)c2n1 [compound 1194] |
| < 50 | – | 5.93 | Cc1cc(-c2cc(Cl)ccc2OCCn2c(C)nc3cc(C(F)(F)F)c(OCC(F)F)c(C#N)c3c2=O)c2scc(C(=O)O)c2n1 [compound 1197] |
| < 50 | – | 13 | CCc1cc(-c2cc(Cl)ccc2OCCn2c(C)nc3c(Cl)nc(C4CC4)c(C#N)c3c2=O)c2scc(C(=O)O)c2n1 [compound 1198] |
| < 50 | – | 18.2 | CCc1cc(-c2cc(Cl)ccc2OCCn2c(C)nc3c(N(C)C)nc(C4CC4)c(C#N)c3c2=O)c2scc(C(=O)O)c2n1 [compound 1199] |
| < 50 | – | 9.15 | Cc1cc(-c2cc(Cl)ccc2OCCn2c(C)nc3cnc(N4[C@@H]5C[C@H]4CN(C)C5)c(C#N)c3c2=O)c2sc(C)c(C(=O)O)c2n1 [compound 1203] |
| < 50 | – | 32.5 | COC(=O)c1csc2c(-c3cc(Cl)ccc3OCCn3c(C)nc4cc(C(F)(F)F)c(N5CCN(C6CC6)CC5)c(C#N)c4c3=O)ccnc12 [compound 1206] |
| < 50 | – | 25.7 | CCc1cc(-c2cc(F)c(F)cc2OCCn2c(C)nc3cc(C(F)(F)F)c(N4CCN(C)CC4)c(C#N)c3c2=O)c2scc(C(=O)O)c2n1 [compound 1215] |
| < 50 | – | 10.3 | CCc1cc(-c2cc(Cl)ccc2OCCn2c(C)nc3cnc([C@@H]4[C@@H]5CN(C)C[C@@H]54)c(C#N)c3c2=O)c2scc(C(=O)O)c2n1 [compound 1216] |
| < 50 | – | 24.2 | Cc1cc(-c2cc(Cl)ccc2OCCn2c(C)nc3c(-c4ccccc4)nc(N4CCN(C)CC4)c(C#N)c3c2=O)c2scc(C(=O)O)c2n1 [compound 1217] |
| < 50 | – | 3.99 | CCc1cc(-c2cc(Cl)ccc2OCCn2c(C)nc3cnc(N4CCN(C)C5CC54)c(C#N)c3c2=O)c2scc(C(=O)O)c2n1 (stereo not drawn) [compound 1219] |
| < 50 | – | 13.1 | CCc1cc(-c2cc(Cl)ccc2OCCn2c(C)nc3cnc(N4CCNC5CC54)c(C#N)c3c2=O)c2scc(C(=O)O)c2n1 (stereo not drawn) [compound 1220] |
| < 50 | – | 12.8 | Cc1cc(-c2cc(Cl)ccc2OCCn2c(C)nc3cnc(-c4ccc(C)c(O)c4)c(C#N)c3c2=O)c2scc(C(=O)O)c2n1 [compound 1227] |
| < 50 | – | 30.2 | COC1CCN(c2ncc3nc(C)n(CCOc4ccc(Cl)cc4-c4cc(C)nc5c(C(=O)O)csc45)c(=O)c3c2C#N)C1 (stereo not drawn) [compound 1234] |
| < 50 | – | 6.32 | CCc1cc(-c2cc(Cl)ccc2OCCn2c(C)nc3cnc(N4CCC(O)C4)c(C#N)c3c2=O)c2scc(C(=O)O)c2n1 (stereo not drawn) [compound 1235] |
| < 50 | – | 33.9 | Cc1cc(-c2cc(Cl)ccc2OCCn2c(C)nc3cnc(N4CCC(O)C4)c(C#N)c3c2=O)c2sc(C)c(C(=O)O)c2n1 (stereo not drawn) [compound 1236] |
| < 50 | – | 6.68 | Cc1sc2c(-c3cc(Cl)ccc3OCCn3c(C)nc4cc(C(F)(F)F)c(N5CCN(C)CC5)c(C#N)c4c3=O)cc(CF)nc2c1C(=O)O [compound 1237] |
| < 50 | – | 18.2 | Cc1nc2cc(C(F)(F)F)c(N3CCN(CC(F)F)CC3)c(C#N)c2c(=O)n1CCOc1ccc(Cl)cc1-c1ccnc2c(C(=O)O)csc12 [compound 1239] |
| < 50 | – | 17.3 | Cc1nc2cc(C(F)(F)F)c(N3CCN(C4COC4)CC3)c(C#N)c2c(=O)n1CCOc1ccc(Cl)cc1-c1ccnc2c(C(=O)O)csc12 [compound 1241] |
